Two molecules from US20230149560A1, “LIPID COMPOSITIONS FOR DELIVERY OF STING AGONIST COMPOUNDS AND USES THEREOF” (priority 2020, published 2023) can be followed below.

For assay [1], the system named is MC38 tumors. The experiment in a line: MC38 flank tumor model, single intravenous dose. In kind it is in vivo, mouse. As to conditions: for tumor burden: MC38, single iv dose day 7: LND 1 5 nmol CDN, parent CDN 5 or 100 nmol, ADU-S100 100 nmol. As for the experimental part:
Specifically, a single intravenous injection of LND 1 prepared as described in Example 3 was compared to intravenous injection of parent CDN for effects on tumor growth in a mouse model of colon adenocarcinoma. Tumors were established in 8-10 week old C57BL/6 mice by inoculating the right flank with a subcutaneous injection of 5x10^5 MC38 cells suspended in PBS. On day 7 post-inoculation, the mice were administered an intravenous injection of either parent CDN or LND-formulated CDN at a dose of 5 nmol CDN. Tumor area was measured on days 7, 10, and 12 and compared to untreated mice that received an intratumoral injection of PBS on day 7. The mice were then sacrificed on day 13, and excised tumors were weighed.
Mice were inoculated with MC38 tumors as described above. On day 7 post tumor inoculation, mice were administered a single intravenous injection of parent CDN at a dose of 5 nmol (n=5) or 100 nmol (n=10), ADU-S100 at a dose of 100 nmol (n=10), or LND 1 at a dose of 5 nmol CDN (n=20). Following administration, tumor growth and animal survival was monitored and compared to untreated mice that received an injection of PBS.
It was further investigated whether intravenous administration of LND-formulated CDN was effective in treating well-established MC38 tumors. Specifically, MC38 tumors were allowed to grow for 10 days post-inoculation (mean size of about 45 mm^2), whereupon a single intravenous dose of LND 1 was administered (5 nmol CDN). Control mice were administered PBS only. […] Though mice administered LND-formulated CDN experience some weight loss (about 10% body weight), they recovered full body weight within about 5 days of administration (data not shown).
Systemic administration of LND or liposome particles comprising CDN-PEG-Lipid was compared in the MC38 tumor model. […] The effect on tumor area and survival was evaluated and compared to untreated mice receiving an injection of PBS alone. Tumor size was measured by area (longest dimension x perpendicular dimension) and the mice were euthanized when the tumor area exceeded 150 mm^2 or tumor ulceration became severe.

Assay [2] concerns 4T1-Luc tumor. The experiment in a line: Orthotopic 4T1 tumor model, single intravenous dose. In kind it is in vivo, mouse. As to conditions: 4T1 orthotopic, single iv day 7: LND 1 10 nmol CDN; parent CDN 200 nmol. The protocol:
To evaluate therapeutic efficacy in the aggressive 4T-1 orthotopic tumors, BALB/c mice were inoculated with 5 x 10^5 4T1-Luc tumor cells that were injected into the fourth mammary fat-pad. At 7 days post tumor inoculation, mice were administered CDN formulated as LND 1 at a dose of 10 nmol CDN or parent CDN at a dose of 200 nmol CDN per mouse by intravenous injection. Control mice were administered PBS only.

As to `Nc1ncnc2c1ncn2[C@@H]1O[C@@H]2COP(O)(=S)O[C@@H]3C(O)[C@@H](COP(O)(=S)O[C@H]2[C@H]1O)O[C@H]3n1cnc2c(N)ncnc21` (stereo partly shown) [ADU-S100, dithio-(Rp, Rp)-[cyclic[A(2′,5′)pA(3′,5′)p]], reference compound], the tumor burden result in assay [1] is “no reduction of tumor burden”.
On to `CCN(CC)CC.Nc1nc2c(ncn2[C@@H]2O[C@@H]3COP(=O)(S)O[C@H]4[C@H]5OC[C@]4(COP(=O)(O)O[C@@H]2[C@@H]3O)O[C@H]5n2cnc3c(N)ncnc32)c(=O)[nH]1` (stereo partly shown) [parent CDN], for which, in assay [1] (MC38, single iv 5 nmol CDN on day 7, area days 7-12, weight day 13, vs untreated), the “tumor area and mass” value is listed as “no effect”. Further, the tumor burden entry in assay [1] is given as “no reduction of tumor burden”. Further, the “tumor growth and survival” value in assay [2] is “no impact on tumor growth or overall survival”.
